# Assay results from patent publication US4382920A, “Hormone-like peptides and use thereof” (Perignon Investments Ltd., priority 1980, dated 1983).
# Assay: Body temperature of mice after intravenous injection
# Format: in vivo
# Conditions: for body temperature at 0 min: amount injected as listed per substance
# Method: Type: Out-breed, white NMRI
# Average body weight: 24-27 gm
# Diet: Standard food pellet
# Mice fasted 12-15 hrs. prior to testing (water given during this period)
# Mice all separated from one another
# Mice kept in quiet and dark environment
# Testing time: 1 p.m.-3 p.m. each day
# Test solution is prepared by:
# (b) dissolving a known amount of the refined brain extract in 0.4 ml of trishydrochloric buffer and adjusting the pH of the solution to from about 7.0 to about 7.4 by titrating with microdrops of 1 M or 0.1 M sodium hydroxide solution.
# Volume of solution injected into mice:
# Solution is at room temperature when injected into mice.
# Mouse is placed in restrainer
# Injection is made in the tail vein
# Injection time: 2 minutes
# Body temperature is measured by inserting a thermistor into the anal cavity to a depth of 11/2 cm (thermistor is made by Thermovit, Fu. Armatherm, Lemgo, W. Germany)
# Temperature measurements are begun immediately after injection, i.e., 2 minutes after injection started
# The extract obtained from the brain of 40 lungfish is used. Five mice are used in obtaining the data on the aroused lungfish and nine mice are used for the data on the estivating lungfish.
Structure (SMILES),body temperature at 0 min (pH 7.0-7.4),body temperature at 5 min,body temperature at 10 min,body temperature at 20 min,body temperature at 30 min,body temperature at 40 min,body temperature at 50 min,body temperature at 60 min,body temperature at 2 min,also measured
"CC(=O)[O-].[Na+] [1.0 M SODIUM ACETATE, SODIUM ACETATE]",37.0,37.5,38.0,38.3,38.5,38.0,38.1,38.2,–,"body temperature at 0 min (pH 7.0-7.4, listed as 3.0 M SODIUM ACETATE): 37.5; body temperature at 5 min (listed as 3.0 M SODIUM ACETATE): 36.2; body temperature at 10 min (listed as 3.0 M SODIUM ACETATE): 37.0; body temperature at 20 min (listed as 3.0 M SODIUM ACETATE): 38.0; body temperature at 30 min (listed as 3.0 M SODIUM ACETATE): 37.7; body temperature at 40 min (listed as 3.0 M SODIUM ACETATE): 38.1; body temperature at 50 min (listed as 3.0 M SODIUM ACETATE): 38.6; body temperature at 60 min (listed as 3.0 M SODIUM ACETATE): 38.5"
"O=C([O-])O.[K+] [3.0 M KHCO3, KHCO3]",37.1,35.0,36.5,37.8,37.9,38.4,38.4,38.0,34.7,"body temperature at 0 min (pH 7.0-7.4, listed as 0.3 M KHCO3): 37.6; body temperature at 0 min (pH 7.0-7.4, listed as 1.0 M KHCO3): 38.0; body temperature at 2 min (listed as 0.3 M KHCO3): 36.3; body temperature at 2 min (listed as 1.0 M KHCO3): 37.2; body temperature at 5 min (listed as 0.3 M KHCO3): 37.2; body temperature at 5 min (listed as 1.0 M KHCO3): 37.3; body temperature at 10 min (listed as 0.3 M KHCO3): 38.0; body temperature at 10 min (listed as 1.0 M KHCO3): 38.5; body temperature at 20 min (listed as 1.0 M KHCO3): 39.5; body temperature at 30 min (listed as 0.3 M KHCO3): 38.3; body temperature at 30 min (listed as 1.0 M KHCO3): 39.0; body temperature at 40 min (listed as 1.0 M KHCO3): 39.1; body temperature at 50 min (listed as 0.3 M KHCO3): 38.3"
"[Cl-].[Na+] [3.0 M NaCl, NaCl]",36.0,36.5,38.1,37.9,37.4,37.4,37.6,37.7,34.9,–
N[C@@H](CC(=O)O)C(=O)O [ASPARTIC ACID],36.7,36.7,38.0,37.5,37.6,37.8,37.8,37.8,35.5,–
O=C(O)CCCC(=O)O [GLUTARIC ACID],36.6,37.0,38.1,38.5,38.5,38.4,38.6,39.0,36.5,–
N[C@@H](Cc1c[nH]c2ccccc12)C(=O)O [TRYPTOPHAN],36.9,36.8,37.1,37.4,36.5,36.8,37.0,36.9,36.4,–
